Measured values: PMC8869358, “High-Throughput Chemical Screening and Structure-Based Models to Predict hERG Inhibition” (Biology, 2022)
Counter-ions that a name gives are not always drawn.

These compounds were tested against hERG (Homo sapiens, UniProt Q12809) (assay: cell-based). Details: (-LOG10(IC50), µM).
Chain of hERG (Q12809 whole entry): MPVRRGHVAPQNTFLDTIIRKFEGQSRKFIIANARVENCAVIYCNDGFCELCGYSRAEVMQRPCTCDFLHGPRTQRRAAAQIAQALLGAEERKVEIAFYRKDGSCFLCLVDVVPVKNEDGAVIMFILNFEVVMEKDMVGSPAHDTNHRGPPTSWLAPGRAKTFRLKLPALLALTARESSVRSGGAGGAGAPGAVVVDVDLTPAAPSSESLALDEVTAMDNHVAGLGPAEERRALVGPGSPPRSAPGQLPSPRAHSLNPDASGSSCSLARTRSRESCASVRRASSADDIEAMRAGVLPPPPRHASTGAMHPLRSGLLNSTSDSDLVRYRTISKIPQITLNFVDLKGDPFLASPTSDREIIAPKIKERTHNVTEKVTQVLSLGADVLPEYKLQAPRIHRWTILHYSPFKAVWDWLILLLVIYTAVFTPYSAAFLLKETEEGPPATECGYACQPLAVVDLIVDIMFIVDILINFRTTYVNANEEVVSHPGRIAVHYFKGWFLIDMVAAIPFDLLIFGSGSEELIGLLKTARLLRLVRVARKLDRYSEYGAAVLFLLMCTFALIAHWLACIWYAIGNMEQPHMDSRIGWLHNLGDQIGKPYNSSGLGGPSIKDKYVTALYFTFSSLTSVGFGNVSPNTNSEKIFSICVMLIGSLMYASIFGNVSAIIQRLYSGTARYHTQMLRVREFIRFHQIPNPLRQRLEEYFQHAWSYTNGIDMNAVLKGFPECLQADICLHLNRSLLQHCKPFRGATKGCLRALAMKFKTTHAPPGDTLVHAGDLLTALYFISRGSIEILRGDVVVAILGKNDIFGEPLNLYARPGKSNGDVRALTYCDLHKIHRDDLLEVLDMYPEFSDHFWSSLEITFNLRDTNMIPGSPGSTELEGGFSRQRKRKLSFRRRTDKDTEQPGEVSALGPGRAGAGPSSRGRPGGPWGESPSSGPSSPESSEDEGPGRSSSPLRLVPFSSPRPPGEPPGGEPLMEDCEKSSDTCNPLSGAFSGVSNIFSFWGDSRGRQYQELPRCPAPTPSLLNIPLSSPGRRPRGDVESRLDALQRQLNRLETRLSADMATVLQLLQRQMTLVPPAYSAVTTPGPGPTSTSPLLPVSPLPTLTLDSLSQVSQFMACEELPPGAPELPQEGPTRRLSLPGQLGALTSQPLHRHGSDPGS

| Compound | IC50 [µM] |
| --- | --- |
| CCCC(=O)O[C@]1(C(=O)CCl)[C@@H](C)C[C@H]2[C@@H]3CCC4=CC(=O)C=C[C@]4(C)[C@@]3(F)C(=O)C[C@@]21C [Clobetasone butyrate] | 8.01 |
| NC(=O)C1(N2CCCCC2)CCN(CCCN2c3ccccc3CCc3ccc(Cl)cc32)CC1 [Clocapramine] | 1.45 |
| C#CCOC(=O)[C@@H](C)Oc1ccc(Oc2ncc(Cl)cc2F)cc1 [Clodinafop-propargyl] | 41 |
| CCN(CC)CCNC(=O)COc1ccc(Cl)cc1 [Clofexamide] | 16.3 |
| Clc1ccc(C(OCCN2CCCCC2)c2ccccc2)cc1 (stereo not drawn) [Cloperastine hydrochloride] | 0.849 |
| CCCCCC(C)OC(=O)COc1ccc(Cl)c2cccnc12 (stereo not drawn) [Cloquintocet-mexyl] | 16.1 |
| CCOC(=O)COc1ccc2c(C)c(CCN(CC)CC)c(=O)oc2c1Cl [Cloricromen hydrochloride] | 20.5 |
| CN1CCN(C2=Nc3ccccc3Sc3ccc(Cl)cc32)CC1 [Clothiapine] | 21.3 |
| Clc1ccccc1C(c1ccccc1)(c1ccccc1)n1ccnc1 [Clotrimazole] | 25.5 |
| CCOP(=S)(OCC)Oc1ccc2c(C)c(Cl)c(=O)oc2c1 [Coumaphos] | 40.4 |
| CCN1CCCC(OC(=O)C(c2ccccc2)c2ccccc2)C1 (stereo not drawn) [Crapinon] | 5.35 |
| CC1CCCCN1CCCOC(=O)c1ccc(OC2CCCCC2)cc1 (stereo not drawn) [Cyclomethycaine] | 2.68 |
| O=C1CCCCCCCCCCCCCC1 [Cyclopentadecanone] | 24.5 |
| CCCCOC(=O)[C@@H](C)Oc1ccc(Oc2ccc(C#N)cc2F)cc1 [Cyhalofop-butyl] | 4.87 |
| CCCCCCOC(=O)NC(=N)c1ccc(NCc2nc3cc(C(=O)N(CCC(=O)OCC)c4ccccn4)ccc3n2C)cc1 [Dabigatran etexilate] | 0.515 |
| CN(C)[C@@H](CCOc1cccc2ccccc12)c1ccccc1 [Dapoxetine] | 7.56 |
| CCCCCCCCCCOCC(O)CN (stereo not drawn) [Decominol hydrochloride] | 20.5 |
| CC(C)c1ccc2c(c1)CC[C@H]1[C@](C)(CN)CCC[C@]21C [Dehydroabietylamine acetate] | 13.3 |
| CC(C)Nc1cccnc1N1CCN(C(=O)c2cc3cc(NS(C)(=O)=O)ccc3[nH]2)CC1 [Delavirdine] | 11.1 |

| Compound | IC50 [µM] |
| --- | --- |
| CC[N+](CC)(CC(=O)Nc1c(C)cccc1C)Cc1ccccc1 [Denatonium saccharide] | 27.1 |
| CCCCNc1ccc(C(=O)OCCN(CC)CC)cc1 [Depolipon] | 19 |
| COc1ccc(-c2cc(C(F)F)nn2-c2ccc(S(N)(=O)=O)cc2)cc1F [Deracoxib] | 23.9 |
| CN1C(=O)[C@@H](NC(=O)c2cc3ccccc3[nH]2)N=C(c2ccccc2)c2ccccc21 [Devazepide] | 9.52 |
| O=C(N=NC(=O)OCc1ccccc1)OCc1ccccc1 [Dibenzyl diazene-1,2-dicarboxylate] | 21.9 |
| CCCCOc1cc(C(=O)NCCN(CC)CC)c2ccccc2n1 [Dibucaine] | 6.74 |
| CN(C)S(=O)(=O)N(SC(F)(Cl)Cl)c1ccccc1 [Dichlofluanid] | 17.4 |
| O=C1C(Cl)=C(Cl)C(=O)c2ccccc21 [Dichlone] | 21.9 |
| Oc1ccc(Cl)cc1Cc1cc(Cl)ccc1O [Dichlorophen] | 27 |
| OC(c1ccc(Cl)cc1)(c1ccc(Cl)cc1)C(Cl)(Cl)Cl [Dicofol] | 30.9 |
| O=C(OC1CCCCC1)c1ccccc1C(=O)OC1CCCCC1 [Dicyclohexyl phthalate] | 23.1 |
| CCCCCCCCCC[N+](C)(CCCCCCCCCC)CCC[Si](OC)(OC)OC [Didecylmethyl(3-(trimethoxysilyl)propyl)ammonium chloride] | 2.65 |
| ClC1=C(Cl)[C@]2(Cl)[C@@H]3[C@@H]4C[C@@H]([C@H]5O[C@@H]45)[C@@H]3[C@@]1(Cl)C2(Cl)Cl [Dieldrin] | 33.1 |
| CC1COC(Cn2cncn2)(c2ccc(Oc3ccc(Cl)cc3)cc2Cl)O1 (stereo not drawn) [Difenoconazole] | 22.7 |
| Cn1c(-c2ccccc2)cc(-c2ccccc2)[n+]1C [Difenzoquat metilsulfate] | 34.7 |
| CC(C(O)c1ccccc1)N(C)CCOC(c1ccccc1)c1ccccc1 (stereo not drawn) [Difeterol] | 1.83 |
| C[C@@H]1CC[C@@]2(OC1)O[C@H]1[C@@H](O)[C@H]3[C@@H]4CC[C@H]5C[C@@H](O[C@@H]6O[C@H](CO)[C@H](O[C@@H]7O[C@H](CO)[C@@H](O)[C@H](O[C@@H]8OC[C@@H](O)[C@H](O)[C@H]8O)[C@H]7O[C@@H]7O[C@H](CO)[C@@H](O)[C@H](O[C@@H]8O[C@H](CO)[C@@H](O)[C@H](O)[C@H]8O)[C@H]7O)[C@H](O)[C@H]6O)[C@H](O)C[C@]5(C)[C@H]4CC[C@]3(C)[C@H]1[C@@H]2C [Digitonin] | 8.9 |
| CN1C[C@H](C(=O)N[C@]2(C)O[C@@]3(O)[C@@H]4CCCN4C(=O)[C@H](Cc4ccccc4)N3C2=O)C[C@@H]2c3cccc4[nH]cc(c34)C[C@H]21 [Dihydroergotamine] | 19 |
| Cc1ccc(S(=O)(=O)C(I)I)cc1 [Diiodomethyl 4-methylphenyl sulfone] | 46.2 |

| Compound | IC50 [µM] |
| --- | --- |
| COc1cc(C(=O)OCCCN2CCCN(CCCOC(=O)c3cc(OC)c(OC)c(OC)c3)CC2)cc(OC)c1OC [Dilazep] | 6.01 |
| CCCCc1cc2ccccc2c(OCCN(C)C)n1 [Dimethisoquin hydrochloride] | 3.65 |
| COc1ccc(C(=CC(=O)N2CCOCC2)c2ccc(Cl)cc2)cc1OC [Dimethomorph] | 11.8 |
| CC(C)(C)C(O)/C(=C\c1ccc(Cl)cc1Cl)n1cncn1 (stereo not drawn) [Diniconazole] | 61.6 |
| O=[N+]([O-])c1cccc(S(=O)(=O)NCCNS(=O)(=O)c2cccc([N+](=O)[O-])c2)c1 [Dinsed] | 14.5 |
| C=CC(=O)OCC(CO)(COCC(COC(=O)C=C)(COC(=O)C=C)COC(=O)C=C)COC(=O)C=C [Dipentaerythritol pentaacrylate] | 8.28 |
| O=C(Nc1ccccc1)OCC(CN1CCCCC1)OC(=O)Nc1ccccc1 (stereo not drawn) [Diperodon hydrochloride] | 6.01 |
| C[N+]1(C)CCC(=C(c2ccccc2)c2ccccc2)CC1 [Diphemanil methylsulfate] | 6.24 |
| CCOC(=O)C1(c2ccccc2)CCN(CCC(C#N)(c2ccccc2)c2ccccc2)CC1 [Diphenoxylate hydrochloride] | 0.624 |
| O=C(Oc1ccccc1)c1cccc(C(=O)Oc2ccccc2)c1 [Diphenyl isophthalate] | 25 |
| O=C(Oc1ccccc1)c1ccccc1C(=O)Oc1ccccc1 [Diphenyl phthalate] | 15.5 |
| c1ccc(Sc2ccccc2)cc1 [Diphenyl sulfide] | 43.6 |
| Cc1cc(C)c(C(=O)P(=O)(c2ccccc2)c2ccccc2)c(C)c1 [Diphenyl(2,4,6-trimethylbenzoyl)phosphine oxide] | 20.3 |
| CC[N+](CC)(CC)CCOC(=O)C(C1CCCC1)C1CCCC1 [Diponium bromide] | 9.52 |
| CC(=O)OCCN(CCOC(C)=O)c1ccc(/N=N/c2ccc([N+](=O)[O-])cc2C#N)cc1 [Disperse Red 82] | 24.5 |
| CCOP(=S)(OCC)SCCSCC [Disulfoton] | 43.3 |
| N#Cc1sc2c(=O)c3ccccc3c(=O)c=2sc1C#N [Dithianon] | 30.9 |
| CCCCCCCCCCCCN [Dodecylamine hydrochloride] | 13.3 |
| CCCCCCCCCCCC[N+](C)(C)C [Dodecyltrimethylammonium bromide] | 21 |
